Experimental data as given in PMC4375495 (The Journal of Biological Chemistry, 2015).

Assays:
[1] = molecular target: PI3Kδ (murine p110δ-p85α) (Mus musculus, UniProt O35904); assay: biochemical
Description: All IC50 values represent geometric mean values of a minimum of four determinations.

[2] = molecular target: recombinant PI3Kδ (p110δ-p85α) (Mus musculus, UniProt O35904); assay: Competition of idelalisib with ATP (HTRF kinetic assay); type: biochemical, murine
Experimental: After a 1-h preincubation period, PIP2 was added to a final concentration of 10 μM, and ATP was added at concentrations from 0 to 1.5 mM to initiate the reaction. After 45 min, the reactions were quenched with a stop solution from the assay kit. A detection solution was then added to each well, and the mixture was further incubated for 2 h. Time-resolved fluorescence was measured with a Tecan Infinite M1000 plate reader, using an excitation wavelength of 330 nm and emission wavelengths of 620 and 665 nm. The ratio of emission at 665 nm to that at 620 nm was used as the measure of reaction rate. […] Values of α ≫ 1 are indicative of competitive inhibition, values of α approximately equal to 1 imply noncompetitive inhibition, and values of α ≪ 1 are characteristic of uncompetitive inhibitors ([22]).

[3] = molecular target: PI3Kδ-p85α (Mus musculus, UniProt O35904); assay: Reversibility (dilution) assay; type: biochemical, murine; details: preincubation 1 h with 400 nM idelalisib or 100 nM wortmannin; 10 μM PIP2, 300 μM ATP
Experimental: One microliter of solution was transferred to 99 μl of reaction buffer solution containing 10 μM PIP2 and 300 μM ATP to initiate the enzyme reaction. At 5-min intervals, samples from each reaction were quenched with HTRF stop solution, and fluorescence was measured using the detection kit as described above. The reactions were measured over a time frame of 40 min. […] The data were analyzed with linear least square fits to obtain reaction rates.

[4] = test system: broad panel of 351 kinases and 44 mutant kinases; assay: KINOMEscan kinase panel; type: binding; details: 10 μM idelalisib
Experimental: The enzymatic activity of the class I PI3K isoforms was measured using a time-resolved FRET assay that monitors formation of the product PIP3, because it competes with fluorescently labeled PIP3 for binding to the GRP-1 pleckstrin homology domain protein. An increase in PIP3 product results in a decrease in time-resolved FRET signal as the labeled fluorophore is displaced from the GRP-1. […] After an assay reaction time of 30 min at 25 °C, reactions were terminated with a final concentration of 10 mM EDTA, 10 nM labeled PIP3, and 35 nM europium-labeled GRP-1 detector protein before reading time-resolved FRET on an Envision plate reader (excitation, 340 nm; emission, 615/665 nm; delay, 100 μs; and read window, 500 μs). […] All IC50 values represent geometric mean values of a minimum of four determinations. These assays generally produced results within 3-fold of the reported mean.

[5] = molecular target: T1, ΔABD-p110δ (Mus musculus, UniProt O35904); assay: Surface plasmon resonance binding assay (Biacore); design: species or system murine; details: for dissociation from the protein during the dissociation phase: idelalisib 0.12-30 nM, wortmannin 2 μM, 1-hour dissociation phase
T1 construct: digested with the rTEV protease to remove the iSH2 and ABD domains; made in house
T1 sequence (O35904 106-1043 limits assumed): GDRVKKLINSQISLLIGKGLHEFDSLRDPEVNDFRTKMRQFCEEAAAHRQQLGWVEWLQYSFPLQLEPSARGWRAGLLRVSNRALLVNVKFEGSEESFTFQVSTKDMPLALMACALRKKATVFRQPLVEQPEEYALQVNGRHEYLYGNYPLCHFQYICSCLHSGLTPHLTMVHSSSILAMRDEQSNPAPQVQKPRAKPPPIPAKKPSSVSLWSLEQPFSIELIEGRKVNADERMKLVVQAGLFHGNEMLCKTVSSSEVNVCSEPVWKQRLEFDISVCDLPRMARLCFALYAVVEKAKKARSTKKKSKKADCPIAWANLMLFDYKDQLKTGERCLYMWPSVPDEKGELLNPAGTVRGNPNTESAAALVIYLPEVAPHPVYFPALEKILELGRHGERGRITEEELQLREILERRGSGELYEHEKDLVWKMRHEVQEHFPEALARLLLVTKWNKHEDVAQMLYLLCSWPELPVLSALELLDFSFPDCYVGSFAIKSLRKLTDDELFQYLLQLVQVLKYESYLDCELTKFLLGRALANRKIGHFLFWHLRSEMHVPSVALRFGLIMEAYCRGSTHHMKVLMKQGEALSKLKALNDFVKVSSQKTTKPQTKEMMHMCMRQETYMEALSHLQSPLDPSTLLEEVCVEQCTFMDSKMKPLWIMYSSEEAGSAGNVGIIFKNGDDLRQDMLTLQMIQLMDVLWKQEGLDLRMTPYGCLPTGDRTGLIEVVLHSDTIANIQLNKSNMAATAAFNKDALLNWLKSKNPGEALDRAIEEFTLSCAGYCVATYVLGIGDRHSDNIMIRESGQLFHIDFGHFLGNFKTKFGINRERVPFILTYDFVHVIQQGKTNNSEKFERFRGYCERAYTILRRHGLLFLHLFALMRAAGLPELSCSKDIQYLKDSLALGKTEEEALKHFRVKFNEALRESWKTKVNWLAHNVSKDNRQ
Experimental: ΔABD-p110δ was minimally biotinylated using a 1:1 molar ratio of protein to EZ-link sulfo-NHS-LC-LC-biotin (ThermoScientific; catalog no. 21338). […] Following incubation for 1 h at 4 °C, the mixture was desalted using a Zeba spin desalting column (ThermoScientific; catalog no. 89883) pre-equilibrated in Biacore running buffer (25 mM HEPES, pH 7.5, 150 mM NaCl, 5 mM MgCl2, 1 mM TCEP, 5% glycerol, 0.05% P20) to remove any unreacted biotin. […] Characterization of inhibitor binding and dissociation was performed using a Biacore T100 instrument and research grade series S CM5 sensor chips (GE Healthcare; catalog no. BR-1005-30). Before use, CM5 sensor chips were preconditioned using two 6-s pulses each of 100 mM HCl, 50 mM NaOH, 0.5% (w/v) SDS, and deionized H2O at a flow rate of 100 μl/min. Approximately 15,000 response units (RU) of neutravidin was immobilized on all four surfaces via standard amine-coupling chemistry (GE Healthcare; catalog no. BR-1000-50) in HBS-P buffer (10 mM HEPES, pH 7.4, 150 mM NaCl, 0.005% P20). Biotinylated protein was injected over separate flow cells to achieve capture levels ranging between 6,000 and 14,000 response units. Any remaining free sites on neutravidin were blocked with two 5-min pulses of 50 μM EZ-Link-Amine-PEG2-Biotin (ThermoScientific; catalog no. 21346) at a flow rate of 30 μl/min. […] Wortmannin was injected on a separate sensor chip at a concentration of 2 μM for an 8-min association phase and a 1-hour dissociation phase. At the end of each injection cycle, the injection needle and tubing were washed with 50% DMSO using the “extra wash” command. A five-point DMSO concentration series (ranging from 0.8% to 1.2% DMSO) was included to generate a calibration curve to correct for excluded volume effects. Sensorgrams were double-referenced and corrected for solvent effects using Scrubber 2.0c software (Biologic Software, Campbell, Australia) but fitted using both Scrubber and CLAMP software ([23]).
The data were fitted using a mass transport model ([24], [25]). Three independent surfaces were globally fit for the association and dissociation rates ka and […], while floating the maximum binding response (Rmax) and mass transport (kt) constant for each surface. […] For wortmannin, only an off-rate analysis was performed.

[6] = biotinylated p110δ captured on neutravidin, mass transport model, global fit

Chain of recombinant PI3Kδ (p110δ-p85α) (O35904 whole entry): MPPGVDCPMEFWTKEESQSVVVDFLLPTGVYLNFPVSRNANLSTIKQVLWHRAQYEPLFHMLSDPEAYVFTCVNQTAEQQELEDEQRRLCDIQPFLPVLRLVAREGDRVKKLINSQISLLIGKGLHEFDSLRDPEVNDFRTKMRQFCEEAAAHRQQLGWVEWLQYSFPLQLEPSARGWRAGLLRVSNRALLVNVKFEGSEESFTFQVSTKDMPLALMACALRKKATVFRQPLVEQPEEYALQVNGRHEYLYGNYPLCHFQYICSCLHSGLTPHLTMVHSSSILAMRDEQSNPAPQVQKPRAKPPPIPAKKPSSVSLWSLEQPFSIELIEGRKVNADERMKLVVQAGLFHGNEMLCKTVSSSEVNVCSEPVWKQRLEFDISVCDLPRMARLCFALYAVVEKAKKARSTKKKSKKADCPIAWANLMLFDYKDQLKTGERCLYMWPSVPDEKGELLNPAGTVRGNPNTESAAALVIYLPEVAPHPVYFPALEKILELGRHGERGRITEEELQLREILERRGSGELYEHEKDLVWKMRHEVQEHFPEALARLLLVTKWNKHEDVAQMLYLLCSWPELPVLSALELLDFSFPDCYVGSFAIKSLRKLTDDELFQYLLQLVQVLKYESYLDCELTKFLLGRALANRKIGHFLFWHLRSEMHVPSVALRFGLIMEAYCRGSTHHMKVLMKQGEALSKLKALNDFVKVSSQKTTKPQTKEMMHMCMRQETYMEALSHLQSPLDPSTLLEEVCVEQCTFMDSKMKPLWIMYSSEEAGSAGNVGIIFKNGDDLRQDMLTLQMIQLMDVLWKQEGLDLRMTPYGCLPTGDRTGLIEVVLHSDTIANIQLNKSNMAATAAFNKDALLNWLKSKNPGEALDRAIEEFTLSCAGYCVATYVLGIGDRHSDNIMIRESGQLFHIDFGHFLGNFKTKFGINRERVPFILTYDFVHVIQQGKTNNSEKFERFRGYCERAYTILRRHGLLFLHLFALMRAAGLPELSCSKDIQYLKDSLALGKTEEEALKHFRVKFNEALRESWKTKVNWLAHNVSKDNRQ
Chain of recombinant PI3Kδ (p110δ-p85α) (P27986 whole entry partner): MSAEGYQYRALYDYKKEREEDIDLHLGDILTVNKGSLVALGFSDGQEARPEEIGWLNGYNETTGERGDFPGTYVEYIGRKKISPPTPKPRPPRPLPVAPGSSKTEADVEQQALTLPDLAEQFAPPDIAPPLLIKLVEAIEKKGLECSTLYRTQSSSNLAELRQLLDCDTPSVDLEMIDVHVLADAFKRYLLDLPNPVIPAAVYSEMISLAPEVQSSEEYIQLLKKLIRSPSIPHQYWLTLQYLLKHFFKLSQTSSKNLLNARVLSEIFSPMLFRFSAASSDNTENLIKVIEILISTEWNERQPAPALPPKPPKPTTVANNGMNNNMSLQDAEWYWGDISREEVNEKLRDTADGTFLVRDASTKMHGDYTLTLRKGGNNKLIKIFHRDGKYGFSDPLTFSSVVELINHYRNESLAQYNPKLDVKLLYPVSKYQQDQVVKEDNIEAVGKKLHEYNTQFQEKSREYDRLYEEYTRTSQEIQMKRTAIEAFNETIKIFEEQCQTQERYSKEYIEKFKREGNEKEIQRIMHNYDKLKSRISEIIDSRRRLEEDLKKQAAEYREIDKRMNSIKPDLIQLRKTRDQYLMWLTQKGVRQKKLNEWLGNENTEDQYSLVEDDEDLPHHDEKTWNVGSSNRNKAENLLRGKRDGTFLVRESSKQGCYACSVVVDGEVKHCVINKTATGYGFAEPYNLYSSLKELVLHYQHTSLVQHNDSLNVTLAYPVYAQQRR
Chain of PI3Kδ-p85α (O35904 whole entry): as the sequence (O35904 whole entry) above
Chain of PI3Kδ-p85α (P27986 whole entry partner): as the sequence (P27986 whole entry partner) above
Chain of PI3Kδ (murine p110δ-p85α) (O35904 whole entry): as the sequence (O35904 whole entry) above
Chain of PI3Kδ (murine p110δ-p85α) (P27986 whole entry partner): as the sequence (P27986 whole entry partner) above

Row | Compound | IC50 [1] [nM] | Ki ([2]; read-out: Ki (inhibition constant)) [nM] | mode of inhibition (parameter α of the global fit) ([2]; α ≫ 1) | recovery of enzyme activity following 1:100 dilution of the enzyme-inhibitor complex [3] | most potent percent inhibition seen for any non-PI3K kinase [4] [%] | off rate kd [5, 6] [s⁻¹] | on rate ka [5, 6] [M⁻¹ s⁻¹] | dissociation from the protein during the dissociation phase [5]
1 | CC[C@H](Nc1ncnc2[nH]cnc12)c1nc2cccc(F)c2c(=O)n1-c1ccccc1 [Idelalisib, 5-fluoro-3-phenyl-2-[(1S)-1-(9H-purin-6-ylamino)propyl]quinazolin-4(3H)-one] | 19 | 1.5 ± 0.1 | ATP-competitive inhibition | enzyme activity was quickly recovered | 47 | 0.00634 | 5.18e+06 | complete dissociation
2 | COC[C@H]1OC(=O)c2coc3c2[C@@]1(C)C1=C(C3=O)[C@@H]2CCC(=O)[C@@]2(C)C[C@H]1OC(C)=O [wortmannin] | – | – | – | did not show detectable recovery of activity upon dilution | – | – | – | no dissociation after 1 h
